The values below come from patent publication US8367039B2, “Compounds for the diagnosis of diseases associated with VCAM expression” (Guerbet, priority 2007, dated 2013).

This test concerns the target T1, VCAM-1 (Mus musculus, UniProt P29533).
T1 construct: from tissue; host or cells: liver of Balb/c mice in vivo, Con-A-induced hepatitis
T1 sequence (P29533 25-739): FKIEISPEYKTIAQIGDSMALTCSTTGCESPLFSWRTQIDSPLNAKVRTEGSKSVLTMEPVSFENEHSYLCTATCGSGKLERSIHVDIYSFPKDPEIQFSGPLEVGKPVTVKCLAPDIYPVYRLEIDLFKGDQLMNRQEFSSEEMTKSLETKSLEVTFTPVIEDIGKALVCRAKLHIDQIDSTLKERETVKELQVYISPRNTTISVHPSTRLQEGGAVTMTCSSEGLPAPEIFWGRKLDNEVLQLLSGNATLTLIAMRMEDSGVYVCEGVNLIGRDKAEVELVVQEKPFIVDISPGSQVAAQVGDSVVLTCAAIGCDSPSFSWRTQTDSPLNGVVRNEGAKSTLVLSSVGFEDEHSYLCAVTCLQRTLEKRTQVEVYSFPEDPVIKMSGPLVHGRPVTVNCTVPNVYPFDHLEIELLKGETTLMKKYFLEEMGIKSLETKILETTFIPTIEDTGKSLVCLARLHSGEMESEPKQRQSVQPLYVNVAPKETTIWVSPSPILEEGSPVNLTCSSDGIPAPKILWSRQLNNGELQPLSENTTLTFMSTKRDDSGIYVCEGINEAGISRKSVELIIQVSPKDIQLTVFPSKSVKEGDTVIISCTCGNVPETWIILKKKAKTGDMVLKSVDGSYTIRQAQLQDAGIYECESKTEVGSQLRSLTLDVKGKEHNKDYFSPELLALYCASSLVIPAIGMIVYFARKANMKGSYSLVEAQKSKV
Description: MRI in vivo on a model of Con-A-induced hepatitis in mice. The note with it: 100 μmol Gd/kg i.v., FIG. 3. The protocol: Before the MRI acquisition, the mice are anesthetized with pentobarbital. All the experiments are carried out on a 200 MHz Bruker spectrometer (4.7 T) equipped with a vertical magnet and with a microimaging system.
The hepatitis is induced by i.v. injection of 20 mg/kg of Con-A in Balb/c mice weighing approximately 26 g. The literature reports that VCAM-1 is massively expressed in the liver between 4 and 8 hours after the injection of Con-A. The MRI protocol is the following: (1) the precontrast MRI begins 4h30 after the injection of Con-A; (2) the contrast product is injected at the dose of 100 μmol Gd/kg approximately 5 h after the injection of Con-A; (3) several post-contrast acquisitions are carried out for 1 h30 every 7 minutes. […]
For the two models, the SI values are measured in various regions of interest (at the level of the arterial wall of the abdominal aorta or whole liver) using the OSIRIS image analysis software. […] The SI value is measured on all the image slices where the arterial wall and the liver are visible. […] The increase in the signal/noise ratio (% ΔSNR) is calculated according to the following equation: % ΔSNR=[(SIpost/SDnoise)−(SIpre/SDnoise)]/[SIpre/SDnoise]×100 where SDnoise is the standard deviation of the noise measured on a region outside the animal.

`O=C([O-])CN1CCN(CC(=O)[O-])CCN(CC(=O)O)CCN(CC(=O)[O-])CC1.[Gd+3]` [Gd-DOTA]: the “change in signal/noise ratio (% ΔSNR) of the liver over time, hepatitis versus healthy mouse” value is “substantially identical”.
